The record followed here is PubChem BioAssay AID1963429 (Molecular Pharmacology Branch, DTP, NCI, 2024).

This assay has as its system 126254-015-R-J1-PDC complex spheroid growth, % test/control. Nature of the assay: Anticancer human tumor 126254-015-R-J1-PDC patient-derived soft tissue sarcoma cell line growth inhibition [Asc]. Particulars: for viability, T/C: stronger effect = lower value. The method in brief:
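Stromal components (HUVEC and hMSC) are co-assembled with the cancer cells into multicellular spheroids. Drugs are then added singly or paired, at concentrations falling by half-log increments from a clinically achievable maximum, capped at 10 microM without known Cmax.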

Several values for one entry are separate records, joined by “and”; a condition that tells them apart may be missing. Identical values can stand only once.
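Also: spheroids exposed to compound for seven days.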
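For viability, T/C in this document: 100% = DMSO vehicle control wells.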

Take `CCN1CCN(Cc2ccc(Nc3ncc(F)c(-c4cc(F)c5nc(C)n(C(C)C)c5c4)n3)nc2)CC1`: the viability, T/C (commonly the ratio of treated to control) (compound 0.00316 µM) was 99.2% and 102% (2×); the viability, T/C (compound 0.01 µM) is 104% and 97% and 96.8%; the viability, T/C (compound 0.0316 µM) is 109% (2×) and 99%; the viability, T/C (compound 0.1 µM) was 94.1% and 103% and 115%; the viability, T/C (compound 0.316 µM) was 114% and 110% and 112%; the viability, T/C (compound 1 µM) is 110% and 102% and 112%. Besides, under “curve of compound”, the IC50 (usually the concentration that gives 50% inhibition) is more than 1 µM.

For `O=C(c1cc(Cc2n[nH]c(=O)c3ccccc23)ccc1F)N1CCN(C(=O)C2CC2)CC1` + Cc1c(S(C)(=O)=O)c(-c2cc(F)cc(N3CCN(c4ccc(NS(=O)(=O)c5ccc(NC(CCN6CCC(C(=O)OCCCP(=O)(O)O)CC6)CSc6ccccc6)c(S(=O)(=O)C(F)(F)F)c5)cc4)CC3)c2)c(-c2ccc(Cl)cc2)n1C(C)C, the IC50 was more than 10 µM (curve of first compound, second compound 0.1 µM); 9.75 µM (curve of first compound, second compound 0.316 µM); 7.04 µM (curve of first compound, second compound 1 µM); 5.75 µM (curve of first compound, second compound 3.16 µM); more than 10 µM (curve of first compound, second compound 10 µM). For the same compound, the viability, T/C was 77.8% (second compound 0.1 µM, first compound 0.0316 µM); 81.8% (second compound 0.1 µM, first compound 0.1 µM); 80% (second compound 0.1 µM, first compound 0.316 µM); 71.8% (second compound 0.1 µM, first compound 1 µM); 66.8% (second compound 0.1 µM, first compound 3.16 µM); 56.2% (second compound 0.1 µM, first compound 10 µM). Besides, the viability, T/C is, setting by setting: (second compound 0.316 µM, first compound 0.0316 µM) 87.3%; (second compound 0.316 µM, first compound 0.1 µM) 79.3%; (second compound 0.316 µM, first compound 0.316 µM) 80.2%; (second compound 0.316 µM, first compound 1 µM) 67.6%; (second compound 0.316 µM, first compound 3.16 µM) 73.9%; (second compound 0.316 µM, first compound 10 µM) 47.8%. The viability, T/C is 77% (second compound 1 µM, first compound 0.0316 µM); 72.8% (second compound 1 µM, first compound 0.1 µM); 65.7% (second compound 1 µM, first compound 0.316 µM); 71.3% (second compound 1 µM, first compound 1 µM); 58.1% (second compound 1 µM, first compound 3.16 µM); 45.8% (second compound 1 µM, first compound 10 µM). The viability, T/C is, setting by setting: (second compound 3.16 µM, first compound 0.0316 µM) 75%; (second compound 3.16 µM, first compound 0.1 µM) 68.7%; (second compound 3.16 µM, first compound 0.316 µM) 74.5%; (second compound 3.16 µM, first compound 1 µM) 65.5%; (second compound 3.16 µM, first compound 3.16 µM) 59.2%; (second compound 3.16 µM, first compound 10 µM) 41.8%. Moreover, the viability, T/C reads like this: (second compound 10 µM, first compound 0.0316 µM) 75.9%; (second compound 10 µM, first compound 0.1 µM) 80.5%; (second compound 10 µM, first compound 0.316 µM) 72.1%; (second compound 10 µM, first compound 1 µM) 70.6%; (second compound 10 µM, first compound 3.16 µM) 60.6%; (second compound 10 µM, first compound 10 µM) 55.3%.

For the compound `CNC(C)C(=O)NC1CN(S(=O)(=O)c2cccc(S(=O)(=O)N3CCC4CCC(C(=O)NC(c5ccccc5)c5ccccc5)N4C(=O)C(NC(=O)C(C)NC)C3)c2)CCC2CCC(C(=O)NC(c3ccccc3)c3ccccc3)N2C1=O` (configuration not stated) + CCN1C(C(=O)NC23CCC(C(=O)O)(CC2)CC3)C(c2cccc(Cl)c2F)C2(C(=O)Nc3cc(Cl)ccc32)C12CCCCC2, the IC50 reads like this: (curve of first compound, second compound 0.03 µM) more than 1 µM; (curve of first compound, second compound 0.0949 µM) more than 1 µM; (curve of first compound, second compound 0.3 µM) more than 1 µM; (curve of first compound, second compound 0.949 µM) more than 1 µM; (curve of first compound, second compound 3 µM) more than 1 µM. For the same compound, the viability, T/C reads like this: (second compound 0.03 µM, first compound 0.00316 µM) 108%; (second compound 0.03 µM, first compound 0.01 µM) 94.3%; (second compound 0.03 µM, first compound 0.0316 µM) 76.7%; (second compound 0.03 µM, first compound 0.1 µM) 61.4%; (second compound 0.03 µM, first compound 0.316 µM) 50.6%; (second compound 0.03 µM, first compound 1 µM) 56.6%. Also, the viability, T/C (second compound 0.0949 µM, first compound 0.00316 µM) is 104%; the viability, T/C (second compound 0.0949 µM, first compound 0.01 µM) is 106%; the viability, T/C (second compound 0.0949 µM, first compound 0.0316 µM) was 78.5%; the viability, T/C (second compound 0.0949 µM, first compound 0.1 µM) was 67.2%; the viability, T/C (second compound 0.0949 µM, first compound 0.316 µM) was 52.6%; the viability, T/C (second compound 0.0949 µM, first compound 1 µM) is 57.6%. For the same compound, the viability, T/C is 96% (second compound 0.3 µM, first compound 0.00316 µM); 92.9% (second compound 0.3 µM, first compound 0.01 µM); 96.4% (second compound 0.3 µM, first compound 0.0316 µM); 65.3% (second compound 0.3 µM, first compound 0.1 µM); 62% (second compound 0.3 µM, first compound 0.316 µM); 55.8% (second compound 0.3 µM, first compound 1 µM). Moreover, the viability, T/C (second compound 0.949 µM, first compound 0.00316 µM) is 103%; the viability, T/C (second compound 0.949 µM, first compound 0.01 µM) was 90.4%; the viability, T/C (second compound 0.949 µM, first compound 0.0316 µM) is 79.6%; the viability, T/C (second compound 0.949 µM, first compound 0.1 µM) is 66%; the viability, T/C (second compound 0.949 µM, first compound 0.316 µM) was 58%; the viability, T/C (second compound 0.949 µM, first compound 1 µM) is 55.7%. Also, the viability, T/C (second compound 3 µM, first compound 0.00316 µM) was 85.7%; the viability, T/C (second compound 3 µM, first compound 0.01 µM) was 80.8%; the viability, T/C (second compound 3 µM, first compound 0.0316 µM) was 84.6%; the viability, T/C (second compound 3 µM, first compound 0.1 µM) is 65.3%; the viability, T/C (second compound 3 µM, first compound 0.316 µM) is 53.9%; the viability, T/C (second compound 3 µM, first compound 1 µM) was 59.2%.

Turning to `Cc1nc(N2CCC3(CC2)COC(C)C3N)c(CO)nc1Sc1ccnc(N)c1Cl` (configuration not stated), the viability, T/C was 94.9% and 93.9% and 98.2% (compound 0.00949 µM); 103% and 83.5% and 93.7% (compound 0.03 µM); 86.2% and 84% and 84.9% (compound 0.0949 µM); 84.7% and 73.4% and 69.1% (compound 0.3 µM); 76.9% and 51.7% and 54.3% (compound 0.949 µM); 50.1% and 41.1% and 43.9% (compound 3 µM). Also, the IC50 (curve of compound) is > 3 µM and 1.26 µM and 1.51 µM.

`C#Cc1c(F)ccc2cc(O)cc(-c3ncc4c(N5CC6CCC(C5)N6)nc(OCC56CCCN5CC(F)C6)nc4c3F)c12` (configuration not stated): the viability, T/C was 97.4% and 92.6% and 97.8% (compound 0.0316 µM); 92.8% and 89.8% and 108% (compound 0.1 µM); 100% and 97.5% and 103% (compound 0.316 µM); 94.1% and 97.4% and 93.6% (compound 1 µM); 101% and 95% and 92.8% (compound 3.16 µM); 82.5% and 76.4% and 72.9% (compound 10 µM). Also, the half-inhibitory concentration (IC50) (curve of compound) was more than 10 µM.

`Cc1c(S(C)(=O)=O)c(-c2cc(F)cc(N3CCN(c4ccc(NS(=O)(=O)c5ccc(NC(CCN6CCC(C(=O)OCCCP(=O)(O)O)CC6)CSc6ccccc6)c(S(=O)(=O)C(F)(F)F)c5)cc4)CC3)c2)c(-c2ccc(Cl)cc2)n1C(C)C` (configuration not stated): the viability, T/C (compound 0.1 µM) is 86.8% [middle of 14 runs]; the viability, T/C (compound 0.316 µM) was 85.8% [middle of 13 runs]; the viability, T/C (compound 1 µM) is 84.3% [middle of 14 runs]; the viability, T/C (compound 3.16 µM) was 87.8% [middle of 14 runs]; the viability, T/C (compound 10 µM) was 81.8% [middle of 14 runs]. Besides, for the setting “compound alone, run of 09/27/2022”, the IC50 is more than 10 µM.
